{"source": "patent US20260232652A1", "about": "“COMBINATIONS OF DGK (DIACYLGLYCEROL KINASE) INHIBITORS” (priority 2023, published 2026)", "key": {"[1]": {"molecular_target": "T1, human DGKzeta (Homo sapiens, UniProt Q13574)", "T1 construct": "C-terminally FLAG-tagged, recombinant full-length human DGKζ; made in house; host or cells: baculovirus-infected insect cells", "T1 sequence (Q13574 whole entry)": "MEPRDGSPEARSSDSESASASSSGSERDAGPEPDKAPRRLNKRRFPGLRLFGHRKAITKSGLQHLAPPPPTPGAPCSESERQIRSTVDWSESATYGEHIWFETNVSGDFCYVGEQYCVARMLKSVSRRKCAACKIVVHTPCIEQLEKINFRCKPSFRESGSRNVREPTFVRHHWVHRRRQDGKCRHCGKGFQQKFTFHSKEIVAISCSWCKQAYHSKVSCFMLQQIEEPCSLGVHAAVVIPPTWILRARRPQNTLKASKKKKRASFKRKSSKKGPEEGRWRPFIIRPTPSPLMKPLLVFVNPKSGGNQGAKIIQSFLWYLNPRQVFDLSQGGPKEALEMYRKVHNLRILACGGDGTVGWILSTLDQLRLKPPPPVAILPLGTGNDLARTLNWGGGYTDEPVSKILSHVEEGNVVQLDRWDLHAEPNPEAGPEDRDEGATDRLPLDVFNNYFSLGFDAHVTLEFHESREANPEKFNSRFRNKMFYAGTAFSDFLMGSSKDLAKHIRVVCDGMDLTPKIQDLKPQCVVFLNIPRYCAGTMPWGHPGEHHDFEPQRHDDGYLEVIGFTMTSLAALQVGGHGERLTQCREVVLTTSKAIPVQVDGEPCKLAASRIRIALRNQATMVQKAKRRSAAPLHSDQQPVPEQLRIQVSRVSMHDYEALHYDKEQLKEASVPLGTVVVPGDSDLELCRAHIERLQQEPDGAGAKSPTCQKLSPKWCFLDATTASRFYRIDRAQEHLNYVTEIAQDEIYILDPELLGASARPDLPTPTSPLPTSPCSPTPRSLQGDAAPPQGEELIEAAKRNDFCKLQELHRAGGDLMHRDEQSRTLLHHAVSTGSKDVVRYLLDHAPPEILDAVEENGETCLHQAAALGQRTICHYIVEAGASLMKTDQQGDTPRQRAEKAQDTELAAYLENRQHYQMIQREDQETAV", "assay": "Human DGKzeta kinase activity inhibition assay (ADP-Glo)", "format": "biochemical", "conditions": "read-out: IC50 hDGKz", "description": "Human diacylglycerol kinase zeta (DGKζ) inhibitory activity of compounds of the present invention was quantified employing the human DGKζ kinase activity assay as described in the following paragraphs. In essence, the enzyme activity was measured by quantification of the adenosine-di-phosphate (ADP) generated as a co-product of the enzyme reaction via the “ADP-Glo™ Kinase Assay” kit from the company Promega. This detection system works as follows: In a first step the adenosine-tri-phosphate (ATP) not consumed in the kinase reaction is quantitatively converted to cyclic adenosine-mono-phosphate (cAMP) employing an adenylate cyclase (“ADP-Glo-reagent”), then the adenylate cyclase is stopped and the ADP generated in the kinase reaction is converted to ATP, which subsequently generates in a luciferase-based reaction a glow-luminescence signal (“Kinase Detection Reagent”).\nC-terminally FLAG-tagged, recombinant full-length human DGKζ (inhouse expressed in baculovirus infected insect cells, purified using anti-Flag pulldown and size exclusion chromatography) was used as enzyme. As an alternative, commercially available enzyme by Carnabio can be used. As substrate for the kinase, 1,2-dioleoyl-sn-glycerol, reconstituted in octyl-β-D-glucopyranoside micelles, was used. […] Then 35 volumes of 50 mM MOPS buffer (pH 7.4) were added to yield a solution of 0.28 mM 1,2 dioleoyl-sn-glycerol and 200 mM octyl-β-D-glucopyranoside, which was aliquoted, flash-frozen in liquid nitrogen, and stored at −20° C. until use.\nFor the assay 50 nl of a 100-fold concentrated solution of the test compound in dimethyl sulfoxide (DMSO, Sigma) was pipetted into either a white 1536-well or a white low-volume 384-well microtiter plate (both Greiner Bio-One, Frickenhausen, Germany). […] The concentration of DGKζ was adjusted depending of the activity of the enzyme lot and was chosen appropriate to have the assay in the linear range, a typical concentration is about 0.1 nM. The reaction was stopped by the addition of 2.5 μL of “ADP-Glo-reagent” (1 to 1.5 diluted with water) and the resulting mixture was incubated at 22° C. for 1 h to convert the ATP not consumed in the kinase reaction completely to cAMP. […] The amount of emitted light was taken as a measure for the amount of ADP generated and thereby for the activity of the DGKζ."}, "[2]": {"tested_on": "MC38 mouse model", "assay": "MC38 mouse model, tumor volume, survival and re-challenge (Example 6)", "format": "in vivo", "conditions": "for inhibition of tumor growth: 3 mg/kg p.o. QD each, versus control group; for Tumor volume: each agent 3 mg/kg, antibodies i.p. BIWx4, DGK inhibitors p.o. QD", "description": "In order to study triple combinations or quadruple combinations with anti-CCR8 antibodies, at least one DGK inhibitor and an anti-PD(L)1 antibody, multiple experiments were performed. In order to see the differences in efficacy, the administered amounts for each individual compound or antibody were reduced to 3 mg/kg to avoid full efficacy in a monotherapy setup and to be able to evaluate the efficacy for triple and quadruple combination therapy.\nEfficacy in a MC38 mouse model was analyzed in groups with 10 mice each and is shown in Table 6.1 and FIGS. 8, 9 and 10. • TPP-15285 (mIgG2a) is a surrogate antibody for anti-CCR8 antibody TPP-23411 and induces both, ADCC and ADCP. TPP-15285 was administered i.p. at 3 mg/kg with a BIWx4 administration scheme. • TPP-10748 (Iso Ctrl aCCR8) served as isotype control for TPP-15285 (mIgG2a) and was administered i.p. at 3 mg/kg with a BIWx4 administration scheme. • TPP-3911 (Atezo, mIgG1) was used as anti-PD(L)1 antibody (e.g. pembrolizumab surrogate) and was administered i.p. at 3 mg/kg with a BIWx4 administration scheme. • TPP-3267 or TPP-10149 (mIgG1) served as isotype control for anti-PD(L)1 antibody TPP-3911 (mIgGa) and were abbreviated Iso Ctrl aPD(L)1.\nAntibody treatment was started on ~day 7 after tumor inoculation at ~80-100 mm^3 tumor volume, i.e. antibody administration occurred on days 7, 10, 14 and 17, after tumor inoculation. DGK inhibitor treatment started two days after the first antibody administration, i.e. on ~day 9 after tumor inoculation, i.e. DGK inhibitor was administered on day 9, 10, 11, 12, 13, 14, 15, 16, 17, 18, 19, 20 and 21 after tumor inoculation. Tumor growth inhibition was measured until tumors reached a size of 1100 mm^3 (approx. Day 20 after tumor inoculation)."}, "[3]": {"tested_on": "Human PBMCs", "assay": "Activation of PBMC cells (CD25+ of CD8+ naïve T-cells, flow cytometry)", "format": "cell-based", "description": "In addition to the experimental determination according to the protocol provided below, said proportion of CD25+ cells withing the CD8+ naïve T-cells was simulated according to Meyer et al., 2019, Cell Systems 8, 97-108, Feb. 27, 2019.\nThe relative amount of activated (CD25+) naïve CD8 T cells were analyzed by flow cytometry. Non-stimulated cells served as negative control, cells stimulated with 30 ng/ml aCD3/aCD28/IgG were used as positive control."}, "[4]": {"conditions": "4 days after start of treatment"}, "[5]": {"conditions": "7 days after start of treatment"}, "[6]": {"conditions": "10 days after start of treatment"}, "[7]": {"conditions": "12 days after start of treatment"}, "[8]": {"conditions": "14 days after start of treatment"}, "[9]": {"conditions": "17 days after start of treatment"}, "[10]": {"conditions": "−1 days after start of treatment (6 days after start of transplantation)"}}, "note": "Values joined by “and” are separate entries in the source; they are usually repeats but may differ in a detail not shown here. Equal values may be shown once.", "data": [{"compound": "Cc1ccc2oc(C3CCN(c4c(C(N)=O)c(=O)n(C)c5ccc(F)cc45)CC3)nc2c1", "note": "[DGKalpha inhibitor A, 6-fluoro-1-methyl-4-[4-(5-methyl-1,3-benzoxazol-2-yl)piperidin-1-yl]-2-oxo-1,2-dihydroquinoline-3-carboxamide]", "values": [{"measurement": "IC50", "setting": "[1]", "value": 17.2, "unit": "µM"}, {"measurement": "inhibition of tumor growth", "setting": "[2]", "value": "only moderate inhibition of tumor growth"}, {"measurement": "Tumor volume", "setting": "[2]; [4]", "value": 134.0, "unit": "mm^3"}, {"measurement": "Tumor volume", "setting": "[2]; [5]", "value": 207.0, "unit": "mm^3"}, {"measurement": "Tumor volume", "setting": "[2]; [6]", "value": 412.4, "unit": "mm^3"}, {"measurement": "Tumor volume", "setting": "[2]; [7]", "value": 524.8, "unit": "mm^3"}, {"measurement": "Tumor volume", "setting": "[2]; [8]", "value": 735.4, "unit": "mm^3"}, {"measurement": "Tumor volume", "setting": "[2]; [9]", "value": 1122.5, "unit": "mm^3"}, {"measurement": "Tumor volume", "setting": "[2]; [10]", "value": 62.0, "unit": "mm^3"}, {"measurement": "CD25+ of CD8+ naïve T-cells, Observed", "setting": "[3]; unbound DGKai 0.024 nM, DGKzi 0 nM", "value": "4.1% and 3.1% and 12%"}, {"measurement": "CD25+ of CD8+ naïve T-cells, Observed", "setting": "[3]; unbound DGKai 0.24 nM, DGKzi 0 nM", "value": "3.4% and 5.1% and 6.4%"}, {"measurement": "CD25+ of CD8+ naïve T-cells, Observed", "setting": "[3]; unbound DGKai 2.4 nM, DGKzi 0 nM", "value": "8.3% and 2.1% and 5%"}, {"measurement": "CD25+ of CD8+ naïve T-cells, Observed", "setting": "[3]; unbound DGKai 24 nM, DGKzi 0 nM", "value": "6.8% and 5.4% and 7.3%"}, {"measurement": "CD25+ of CD8+ naïve T-cells, Observed", "setting": "[3]; unbound DGKai 72 nM, DGKzi 0 nM", "value": "9% and 6.7% and 12%"}]}, {"compound": "COc1ccc(C(=O)c2sc(N(c3ccc(F)cc3)[C@H](C)C(N)=O)nc2N)cc1", "note": "[DGKzeta inhibitor A′, (R)-2-(N-[4-amino-5-(4-methoxybenzoyl)thiazol-2-yl]-4-fluoro-anilino)propanamide]", "values": [{"measurement": "inhibition of tumor growth", "setting": "[2]", "value": "only moderate inhibition of tumor growth"}, {"measurement": "Tumor volume", "setting": "[2]; [4]", "value": 115.9, "unit": "mm^3"}, {"measurement": "Tumor volume", "setting": "[2]; [5]", "value": 211.9, "unit": "mm^3"}, {"measurement": "Tumor volume", "setting": "[2]; [6]", "value": 322.0, "unit": "mm^3"}, {"measurement": "Tumor volume", "setting": "[2]; [7]", "value": 508.0, "unit": "mm^3"}, {"measurement": "Tumor volume", "setting": "[2]; [8]", "value": 684.4, "unit": "mm^3"}, {"measurement": "Tumor volume", "setting": "[2]; [9]", "value": 1097.3, "unit": "mm^3"}, {"measurement": "Tumor volume", "setting": "[2]; [10]", "value": 62.4, "unit": "mm^3"}, {"measurement": "CD25+ of CD8+ naïve T-cells, Observed", "setting": "[3]; unbound DGKai 0 nM, DGKzi 0.037 nM", "value": "2% and 3.2%"}, {"measurement": "CD25+ of CD8+ naïve T-cells, Observed", "setting": "[3]; unbound DGKai 0 nM, DGKzi 0.37 nM", "value": "1.7% and 1.6% and 4.2%"}, {"measurement": "CD25+ of CD8+ naïve T-cells, Observed", "setting": "[3]; unbound DGKai 0 nM, DGKzi 3.7 nM", "value": "6% and 4.9% and 6.4%"}, {"measurement": "CD25+ of CD8+ naïve T-cells, Observed", "setting": "[3]; unbound DGKai 0 nM, DGKzi 11 nM", "value": "15% and 10%"}, {"measurement": "CD25+ of CD8+ naïve T-cells, Observed", "setting": "[3]; unbound DGKai 0 nM, DGKzi 37 nM", "value": "29% and 18%"}, {"measurement": "CD25+ of CD8+ naïve T-cells, Observed", "setting": "[3]; unbound DGKai 0 nM, DGKzi 111 nM", "value": "34% and 25% and 35%"}, {"measurement": "CD25+ of CD8+ naïve T-cells, Observed", "setting": "[3]; unbound DGKai 0 nM, DGKzi 370 nM", "value": "32% and 44% and 31%"}]}]}
